The text below walks through data of patent EP4417616A1, “LXR ANTAGONISTS” (Ospedale San Raffaele S.r.l., priority 2023, dated 2024).

Experiment [1] deals with MC38-GFP colon cancer cells. In words: Liver metastasis model, intramesenteric injection of MC38-GFP cells. The note with it: 400 µg, 3 days/week for 2 weeks; 21 days after tumor challenge; vs vehicle.
Description: Macroscopic liver tumor quantification and Immunohistochemistry. At time of autopsy, visible macroscopic tumors were counted, and each liver macroscopically photographed. Livers were then perfused with PBS, harvested and different pieces were sampled, fixed in zinc-formalin and embedded in paraffin for hematoxylin/eosin or immunohistochemical analysis as described^62. Immunohistochemical staining was performed using a Bond RX Automated Immunohistochemistry system (Leica Microsystems GmbH, Wetzlar, Germany) on 3-µm-thick sections. First, tissues were deparaffinized and pre-treated with the Epitope Retrieval Solution [ER1 Citrate Buffer for GFP (dilution 1:500, GFP Polyclonal Antibody, Thermo Fisher Scientific, Cat# A11122, RRID:AB_221569). After washing steps, peroxidase blocking was carried out for 10 min using the Bond Polymer Refine Detection Kit DS9800 (Leica Microsystems GmbH). Then, tissues were washed and incubated for 1h RT with the primary antibody diluted in IHC Antibody Diluent (Novocastra, Leica RE7133). Subsequently, tissues were incubated with polymer-HRP (Biocare Medical, RT517H), developed with DAB-Chromogen for 10 minutes and counterstained with Hematoxilin for 5 minutes. For image acquisition and analysis eSlide Manager (Aperio Leica Biosystems) was used. All images were acquired using the Aperio AT2 system (Leica Biosystems). […]
Experiment [2] relates to bone marrow-purified monocytes. In words: In vitro mono-DC differentiation of bone marrow-purified monocytes cultured with M-CSF. It is filed as cell-based, mouse. The note with it: wild type monocytes, 48 hours of culture.
The test system of the next experiment is LLC tumor cells. Briefly: In vitro growth of LLC tumor cells. The note with it: compared with vehicle. The class given is cell-based, mouse.
Another experiment concerns RMA lymphoma. In words: Treatment of RMA tumor-bearing mice. The note with it: 300 µg i.v. 5 days/week.
The test system of the next experiment is melanoma B16F1-OVA. Briefly: Treatment of B16F1-OVA-bearing mice. The class given is in vivo. The source says:
(§1) Tumor challenge experiments.

Experiment [3] concerns Lewis Lung Carcinoma (LLC). In words: Treatment of LLC tumor-bearing mice. The class given is in vivo.
Description: as §1

For a further experiment, the system named is human T cells. In words: In vitro expansion of activated human T cells by IL-7/IL15. It is filed as cell-based. The note with it: human T cells expanded by IL-7/IL15 with PFM037 (5 and 10 µM).
For another experiment, the system named is IL-1β release. In words: IL-1β release. The note with it: at early times after PFM037 treatment.
For experiment [4], the system named is LXR target genes ABCA1, SREBP1c, FASN and SCD1. Briefly: Quantitative Real-Time-PCR of LXR target genes in PMA-differentiated U937 cells. It is filed as cell-based, human. The note with it: U937 differentiated with PMA 72 hours; PFM037 50, 25 and 10 µM, 16 hours. Here is the method: Reporter assay for nuclear receptor transcriptional activity. Human embryonic Kidney 293 cells (American Type Culture Collection) were cultured in Dulbecco's Modified Eagle's medium containing 10% of fetal bovine serum at 37°C in humidified atmosphere of 5% CO2. HEK293 cells (4×10^4 cells per well) were transiently transfected in 48 well plate with the reporter plasmids pMH100X4-TK-luc (100 ng/300µl), Renilla (22 ng/300µl) together with 100 ng/300µl of pCMX-Gal4-LXRα or pCMX-Gal4-LXRβ plasmids using X-tremeGENE 9 DNA Transfection Reagent (Roche). Six hours after transfection, the cells were treated with the appropriate compound for 24 hours. Luciferase activities were analyzed by luciferase Dual Reporter Assay Systems (Promega) according to the manufacturer's protocol. GAL4-LXRs, and TK-MHC100-luc plasmids were described in^7. For mammalian two-hybrid assays the human liver cell line Hhu7 (American Type Culture Collection) was transiently transfected with the reporter plasmids p5xUAS-tk-Luc (100 ng/300µl) together with pGAL4-RAP250-Del4 (133 ng/300µl), described in^39, and either of pVP16-LXRα-LBD or pVP16-LXRβ-LBD plasmids (133 ng/300µl), described in^40, using the jetPrime transfection reagent (Polyplus). Six hours after transfection, the cells were treated with the appropriate compound for 40 hours. Luciferase activity was analyzed as described above and protein content spectrophotometrically using Coomassie Plus Protein assay reagent (Thermo Scientific). Quantitative Real-Time-PCR. U937 cell line was differentiated in foam macrophages with phorbol 12-myristate 13-acetate (PMA) 10 ng/ml (Sigma) for 72 hours at 37°C in RPMI 10% FBS. At day 3 T0901317 (10 µM) or different amount of PFM037 (50, 25 and 10 µM) were added for 16 hours. Total RNA was purified by TRIZOL (Invitrogen). Reverse transcription was performed by MLV-reverse transcriptase (Promega). QPCR was performed using SYBR Green Master Mix (Applied Biosystems) and real-time PCR (Viia 7 Real Time PCR System, Applied Biosystems). PCR reactions were done in triplicate. The comparative Ct method was used to quantify transcripts that were normalized for human GAPDH. The following primer pairs were used: • GAPDH-F 5'-ACATCATCCCTGCCTCTACTG-3' (SEQ ID No. 1); • GAPDH-R 5'-ACCACCTGGTGCTCAGTGTA-3'(SEQ ID No. 2); • ABCA1-F 5'-CCA GGC CAG TAC GGA ATT C-3' (SEQ ID No. 3); • ABCA1-R 5'-CCT CGC CAA ACC AGT AGG A-3' (SEQ ID No. 4); • SREBP-1c-F 5'-GGC GGG CGC AGA TC-3' (SEQ ID No. 5); • SREBP-1c-R 5'-TTGTTGATAAGCTGAAGCATGTCT-3' (SEQ ID No. 6); • FAS F 5'-ACA GCG GGG AAT GGG TAC T-3'(SEQ ID No. 7); • FAS R 5'-GACTGGTACAACGAGCGGAT-3' (SEQ ID No. 8); • SCD1-F 5'-TTCAGAAACACATGCTGATCCTCATAATTC-3' (SEQ ID No. 9); • SCD1-R 5'-ATTAAGCACCACAGCATATCGCAAGAAAGT-3'(SEQ ID No. 10)

The mark [5] stands for this setting: LLC-bearing mice, 300 µg i.v. 5 days/week from day 6-7, vs vehicle.

Description for RMA lymphoma: Analysis of tumor infiltrating cells by flow cytometry. […] Tumors collected 7, 10, 12 or 14 days after injection were cut into small fragments and digested with Liberase TL (66 µg/ml, Roche) and DNAse I (150 µg/ml, Roche) for 25-30 minutes at 37 °C. Digested tissues were filtered by using a 75 µm diameter cell strainer. Single cell suspensions were stained with Live/Dead Violet kit reagents (Molecular Probes) for 30 minutes at 4°C. After washing, the cells were incubated for 5-10 minutes at RT with Fc-blocking solution (Anti-CD16/32, 10 µg/ml mouse Fc Block, BD) and then stained with various antibodies incubated at 4°C for 20 minutes. […] CD209a (5H10), CCR7 (4b12) and F4/80 (BM8) were from eBioscience. Rat IgG, Rat IgG2a, Rat IgG2b, Rat IgM and Hamster isotype control mAbs were used as controls (Biolegends and BD Biosciences). For intracellular staining, cells were incubated with PMA (100 ng/ml) and ionomycin (500 ng/ml) in the presence of 10 µg/ml of Brefeldin for 4 hours. Cells were then fixed using the IC Fixation buffer (eBioscience), permeabilized with 1x Permeabilization buffer (eBiosciences) and stained with anti-IFNy mAb. Samples were run by FACSCanto flow cytometer and analyzed by FlowJo software gating on live cells. FACS sorting was performed by using the FACSAria Fusion (BD)
Tumor challenge experiments. C57BL/6 mice were injected subcutaneously with LLC-Mock (1 ×10^6), LLC-SULT2B1b (1 ×10^6), RMA (2 ×10^5), or B16F1-OVA (2 ×10^5) tumor cells. […] Tumor size was evaluated by measuring perpendicular diameters by a caliper every 2-3 days. Data are reported as the average tumor volume ± SD. In selected experiments tumors were injected in Ccr2^-/-mice.
Treatment of tumor-bearing mice with LXR antagonists alone or with immunotherapy. Tumor-bearing mice were treated with 25-HC-3S or PFM037 6-7 days after tumor challenge. After 6-7 days, mice were randomly assigned to either treatment or vehicle groups. Mice were injected with 300 µg of either compound given i.v. for 5 days/week. […] B16F1-OVA-bearing mice were treated with 400 µg of PFM037 for 5 days/week. For controls of mAb experiments, mice were injected with 250 µg of rat IgG2a isotype control antibody. […] Tumors were collected and measured 14 days after tumor challenge.

For the compound `CC(C)CC[C@H](O)[C@@H](C)[C@H]1CC[C@H]2[C@@H]3CC=C4C[C@@H](OS(=O)(=O)[O-])CC[C@]4(C)[C@H]3CC[C@]12C.[Na+]` [PFM037, 22(S)-Hydroxycholesterol-3-sulfate sodium salt], in experiment [1], the tumor area result is recorded as “reduced” and the “tumor nodules (macroscopic liver tumor lesions)” value was “much less”. Also, in experiment [2], the CD11c marker expression entry is on record as “expressed CD11c marker”. Further, the “in vitro growth of LLC tumor cells” value in the experiment with LLC tumor cells is listed as “grew in a similar manner”. The “numbers of tumor-infiltrating mono-DCs” value in the experiment on RMA lymphoma is reported as “Higher”. In the experiment with RMA lymphoma (tumor weight at sacrifice), the tumor growth entry is given as “tumor growth control”. In the experiment with melanoma B16F1-OVA, the “antitumor activity, 400 µg compared with 300 µg” value is on record as “much stronger”. Also, the tumor growth result in the experiment with melanoma B16F1-OVA (400 µg 5 days/week) is “delayed the growth”. Moreover, in experiment [3] (setting [5]), the “absolute numbers of tumor-infiltrating mono-DCs” value is reported as “Higher” and the tumor growth entry is “delay of tumor growth”. The tumor growth result in experiment [3] (established LLC tumors, 300 µg/mouse every other day, Fig. 24B) is on record as “able to control LLC tumor growth”. Further, the “LLC growth in wild type BM-chimera mice” value in [3] (wild type BM-chimera mice, compared to vehicle, Fig. 7C) is listed as “better control of LLC growth”. In the experiment with human T cells, the “markers associated to memory/stem cell memory T cells” value is listed as “higher levels”. Besides, the IL-1β release result in the experiment on IL-1β release is given as “no difference”. In addition, in [4], the ABCA1 transcripts result was “no activation”, the “FASN mRNA expression” value is “inhibition”, the “SCD1 mRNA expression” value was “inhibition” and the “SREBP-1c mRNA expression” value is “inhibition”.
